# Like-named read-outs stand apart in the source and are kept apart here.
# What was measured:
# [1] = system: T. gondii RH strain (RH-Tub-eYFP) tachyzoites; assay: microbe, parasite or virus in culture; assay type: cell-based, Toxoplasma gondii; settings: 72 h; for percent parasite growth at 2 µg/mL: Toxoplasma gondii
# [2] = system: P. falciparum 3D7 parasites; assay: P. falciparum growth inhibition assay, 2-cycle (120 h treatment), delayed-death screen and dose-response; assay type: cell-based, Plasmodium falciparum; settings: for activity at 2 µg/mL: Plasmodium falciparum, 3D7
# [3] = system: P. falciparum 3D7 parasites; assay: P. falciparum growth inhibition assay, 1-cycle (72 h treatment), SYBR DNA staining (library screen at 2 μg/mL and dose-response); assay type: cell-based, Plasmodium falciparum; settings: for activity at 2 µg/mL: Plasmodium falciparum, 3D7
# [4] = T. gondii, parasite screen 2 μg/mL, % growth, replicate 1
# [5] = T. gondii, parasite screen 2 μg/mL, % growth, replicate 2
# [6] = P. falciparum, 120 h, parasite screen 2 μg/mL, % growth, replicate 1
# [7] = P. falciparum, 120 h, parasite screen 2 μg/mL, % growth, replicate 2
# [8] = P. falciparum, 72 h, parasite screen 2 μg/mL, % growth, replicate 1
# [9] = P. falciparum, 72 h, parasite screen 2 μg/mL, % growth, replicate 2
# [10] = library screen at 2 μg/mL, % growth, replicate 1
# [11] = library screen at 2 μg/mL, % growth, replicate 2
# [12] = library screen at 2 μg/mL, 120 h, % growth, replicate 1
# [13] = library screen at 2 μg/mL, 120 h, % growth, replicate 2
# [14] = library screen at 2 μg/mL, 72 h, % growth, replicate 1
# [15] = library screen at 2 μg/mL, 72 h, % growth, replicate 2
# [16] = T. gondii, screen at 2 μg/mL, replicate 1
# [17] = T. gondii, screen at 2 μg/mL, replicate 2
# [18] = P. falciparum, 120 h, screen at 2 μg/mL, replicate 1
# [19] = P. falciparum, 120 h, screen at 2 μg/mL, replicate 2
# [20] = P. falciparum, 72 h, screen at 2 μg/mL, replicate 1
# [21] = P. falciparum, 72 h, screen at 2 μg/mL, replicate 2
# [22] = library screen at 2 μg/mL, % growth, replicate 1, read-out: Tg_72h_%Growth_Rep1
# [23] = library screen at 2 μg/mL, % growth, replicate 2, read-out: Tg_72h_%Growth_Rep2
# [24] = library screen at 2 μg/mL, 120 h, % growth, replicate 1, read-out: Pf_120h_%Growth_Rep1
# [25] = library screen at 2 μg/mL, 120 h, % growth, replicate 2, read-out: Pf_120h_%Growth_Rep2
# [26] = library screen at 2 μg/mL, 72 h, % growth, replicate 1, read-out: Pf_72h_%Growth_Rep1
# [27] = library screen at 2 μg/mL, 72 h, % growth, replicate 2, read-out: Pf_72h_%Growth_Rep2
# [28] = T. gondii, parasite screen at 2 μg/mL, % growth, replicate 1
# [29] = T. gondii, parasite screen at 2 μg/mL, % growth, replicate 2
# [30] = P. falciparum 3D7, 120 h, parasite screen at 2 μg/mL, % growth, replicate 1
# [31] = P. falciparum 3D7, 120 h, parasite screen at 2 μg/mL, % growth, replicate 2
# [32] = P. falciparum 3D7, 72 h, parasite screen at 2 μg/mL, % growth, replicate 1
# [33] = P. falciparum 3D7, 72 h, parasite screen at 2 μg/mL, % growth, replicate 2
compound,measurement,setting,value
Cc1cc(O)c2c3c1C(=O)C=C1C(C)(C)C(=O)c4c(O)cc(O)c(c4C13O)C2=O (stereo not shown) [Resistoflavine],Tg_72h_%Growth_Rep1,[1]; [4],250.44%
same,Tg_72h_%Growth_Rep2,[1]; [5],135.44%
same,Pf_120h_%Growth_Rep1,[2]; [6],116.77%
same,Pf_120h_%Growth_Rep2,[2]; [7],93.07%
same,Pf_72h_%Growth_Rep1,[3]; [8],97.04%
same,Pf_72h_%Growth_Rep2,[3]; [9],109.63%
C=C1CC[C@H]2C(C)(C)CCC[C@]2(C)[C@H]1C[C@@]12C[C@H]3C(=O)N4CCC=C4C(=O)N3[C@@H]1Nc1ccccc12 [Drimentine B],Tg_72h_%Growth_Rep1,[1]; [10],108.85%
same,Tg_72h_%Growth_Rep2,[1]; [11],84.36%
same,Pf_120h_%Growth_Rep1,[2]; [12],84.09%
same,Pf_120h_%Growth_Rep2,[2]; [13],80.10%
same,Pf_72h_%Growth_Rep1,[3]; [14],74.87%
same,Pf_72h_%Growth_Rep2,[3]; [15],73.00%
CC(=O)OC[C@@H](NC(=O)C(Cl)Cl)[C@H](O)c1ccc([N+](=O)[O-])cc1 [Chloramphenicol acetate],Tg_72h_%Growth_Rep1,[1]; [16],132.16%
same,Tg_72h_%Growth_Rep2,[1]; [17],92.80%
same,Pf_120h_%Growth_Rep1,[2]; [18],100.35%
same,Pf_120h_%Growth_Rep2,[2]; [19],90.22%
same,Pf_72h_%Growth_Rep1,[3]; [20],90.71%
same,Pf_72h_%Growth_Rep2,[3]; [21],92.14%
CC(=O)N[C@H](CO)[C@H](O)c1ccc([N+](=O)[O-])cc1 [Corynecin I],Tg_72h_%Growth_Rep1,[1]; [16],123.69%
same,Tg_72h_%Growth_Rep2,[1]; [17],87.57%
same,Pf_120h_%Growth_Rep1,[2]; [18],83.28%
same,Pf_120h_%Growth_Rep2,[2]; [19],82.34%
same,Pf_72h_%Growth_Rep1,[3]; [20],83.09%
same,Pf_72h_%Growth_Rep2,[3]; [21],83.78%
COc1cc(/C=N/O)nc(-c2ccccn2)c1 [Caerulomycin],Tg_72h_%Growth_Rep1,[1]; [16],2.08%
same,Tg_72h_%Growth_Rep2,[1]; [17],0.20%
same,Pf_120h_%Growth_Rep1,[2]; [18],2.50%
same,Pf_120h_%Growth_Rep2,[2]; [19],-6.36%
same,Pf_72h_%Growth_Rep1,[3]; [20],5.29%
same,Pf_72h_%Growth_Rep2,[3]; [21],5.34%
CCCCCCC(C)C/C(C)=C/C(C)/C=C(C)/C=C/C(O)C(C)(C)c1cc(O)c([C@@H]2O[C@H](CO)C[C@H](O)[C@H]2O)c(=O)o1 (stereo partly shown) [Deoxyfusapyrone],Tg_72h_%Growth_Rep1,[1]; [16],120.14%
same,Tg_72h_%Growth_Rep2,[1]; [17],99.56%
same,Pf_120h_%Growth_Rep1,[2]; [18],68.41%
same,Pf_120h_%Growth_Rep2,[2]; [19],93.55%
same,Pf_72h_%Growth_Rep1,[3]; [20],84.11%
same,Pf_72h_%Growth_Rep2,[3]; [21],85.81%
"CCO[C@@H]1[C@@H](OC)[C@H](C)O[C@@H](O[C@H]2C[C@H]3[C@@H]4C=C5C(=O)[C@H](C)[C@@H](O[C@H]6CC[C@H](N(C)C)[C@@H](C)O6)CCC[C@H](CC)OC(=O)C[C@H]5[C@@H]4C=C(C)[C@@H]3C2)[C@@H]1OC [spinosyn L, 3'-Ethoxy-]",Tg_72h_%Growth_Rep1,[1]; [4],142.09%
same,Tg_72h_%Growth_Rep2,[1]; [5],79.71%
same,Pf_120h_%Growth_Rep1,[2]; [6],13.87%
same,Pf_120h_%Growth_Rep2,[2]; [7],7.84%
same,Pf_72h_%Growth_Rep1,[3]; [8],10.02%
same,Pf_72h_%Growth_Rep2,[3]; [9],-2.72%
"CCOCCO[C@@H]1CC[C@@H](C[C@@H](C)[C@@H]2CC(=O)[C@H](C)/C=C(\C)[C@@H](O)[C@@H](OC)C(=O)[C@H](C)C[C@H](C)/C=C/C=C/C=C(\C)[C@@H](OC)C[C@@H]3CC[C@@H](C)[C@@](O)(O3)C(=O)C(=O)N3CCCC[C@H]3C(=O)O2)C[C@H]1OC [Umirolimus, reference compound]",Tg_72h_%Growth_Rep1,[1]; [16],81.37%
same,Tg_72h_%Growth_Rep2,[1]; [17],91.74%
same,Pf_120h_%Growth_Rep1,[2]; [18],49.79%
same,Pf_120h_%Growth_Rep2,[2]; [19],32.58%
same,Mean,"[3]; P. falciparum, 72 h, 2 μg/mL, mean of both replicates, growth (% of control)",22.90
same,Pf_72h_%Growth_Rep1,[3]; [20],19.04%
same,Pf_72h_%Growth_Rep2,[3]; [21],26.75%
Cn1ncnc2c(=O)n(C)c(=O)nc1-2 [Toxoflavin],Tg_72h_%Growth_Rep1,[1]; [16],3.96%
same,Tg_72h_%Growth_Rep2,[1]; [17],6.88%
same,Pf_120h_%Growth_Rep1,[2]; [18],16.11%
same,Pf_120h_%Growth_Rep2,[2]; [19],20.32%
same,Pf_72h_%Growth_Rep1,[3]; [20],6.97%
same,Pf_72h_%Growth_Rep2,[3]; [21],-1.92%
CC(C)C[C@H](NC(=O)[C@@H](O)[C@H](N)Cc1ccccc1)C(=O)O [Bestatin],percent parasite growth at 2 µg/mL,[1]; [22],89.8%
same,percent parasite growth at 2 µg/mL,[1]; [23],102%
same,activity at 2 µg/mL,[2]; [24],3.72%
same,activity at 2 µg/mL,[2]; [25],8.03%
same,activity at 2 µg/mL,[3]; [26],10.9%
same,activity at 2 µg/mL,[3]; [27],3.89%
CN(C)[C@H]1C(O)=C(C(N)=O)C(=O)[C@@]2(O)C(O)=C3C(=O)c4c(O)ccc(Cl)c4[C@@](C)(O)[C@H]3C[C@@H]12.Cl [Epichlortetracycline hydrochloride],Tg_72h_%Growth_Rep1,[1]; [10],92.54%
same,Tg_72h_%Growth_Rep2,[1]; [11],103.55%
same,Pf_120h_%Growth_Rep1,[2]; [12],77.41%
same,Pf_120h_%Growth_Rep2,[2]; [13],79.95%
same,Pf_72h_%Growth_Rep1,[3]; [14],82.03%
same,Pf_72h_%Growth_Rep2,[3]; [15],85.38%
CC[C@H]1OC(=O)[C@H](C)[C@@H](O[C@H]2C[C@@](C)(O)[C@@H](O)[C@H](C)O2)[C@H](C)[C@@H](O[C@@H]2O[C@H](C)C[C@H](N(C)C)[C@H]2O)[C@](C)(O)C[C@@H](C)C(=O)[C@H](C)[C@@H](O)[C@]1(C)O [Erythromycin C],Tg_72h_%Growth_Rep1,[1]; [10],45.84%
same,Tg_72h_%Growth_Rep2,[1]; [11],43.52%
same,Pf_120h_%Growth_Rep1,[2]; [12],93.33%
same,Pf_120h_%Growth_Rep2,[2]; [13],77.67%
same,Pf_72h_%Growth_Rep1,[3]; [14],81.84%
same,Pf_72h_%Growth_Rep2,[3]; [15],74.13%
"C=C1[C@@H](C)[C@H]2[C@H](Cc3ccccc3)NC(=O)[C@]23[C@H](OC(C)=O)[C@@H]2O[C@H]2[C@@](C)(O)C(=O)[C@@H](C)C/C=C\[C@H]3[C@@H]1O [Epoxycytochalasin D, 19,20-]",Tg_72h_%Growth_Rep1,[1]; [10],2.15%
same,Tg_72h_%Growth_Rep2,[1]; [11],1.47%
same,Pf_120h_%Growth_Rep1,[2]; [12],6.52%
same,Pf_120h_%Growth_Rep2,[2]; [13],-0.52%
same,Pf_72h_%Growth_Rep1,[3]; [14],5.59%
same,Pf_72h_%Growth_Rep2,[3]; [15],1.64%
C=C1CCO[C@]2([C@@H](O)[C@@](C)(O)CO)NC(=O)[C@@]1(O)NC2=O [Bicyclomycin],percent parasite growth at 2 µg/mL,[1]; [22],126%
same,percent parasite growth at 2 µg/mL,[1]; [23],100%
same,activity at 2 µg/mL,[2]; [24],102%
same,activity at 2 µg/mL,[2]; [25],86.7%
same,activity at 2 µg/mL,[3]; [26],82.6%
same,activity at 2 µg/mL,[3]; [27],88%
CCC1(C2OC(C3OC(O)(CO)C(C)CC3C)CC2C)CCC(C2(C)CCC3(CC(O)C(C)C(C(C)C(OC)C(C)C(=O)O)O3)O2)O1 (stereo not shown) [BIA-M1303],Tg_72h_%Growth_Rep1,[1]; [28],1.84%
same,Tg_72h_%Growth_Rep2,[1]; [29],2.05%
same,Pf_120h_%Growth_Rep1,[2]; [30],3.05%
same,Pf_120h_%Growth_Rep2,[2]; [31],14.66%
same,Pf_72h_%Growth_Rep1,[3]; [32],1.29%
same,Pf_72h_%Growth_Rep2,[3]; [33],-3.52%
O=C(N[C@H](CO)[C@H](O)c1ccc([N+](=O)[O-])cc1)C(Br)Br [Bromamphenicol],Tg_72h_%Growth_Rep1,[1]; [16],80.35%
same,Tg_72h_%Growth_Rep2,[1]; [17],93.07%
same,Pf_120h_%Growth_Rep1,[2]; [18],132.78%
same,Pf_120h_%Growth_Rep2,[2]; [19],78.55%
same,Pf_72h_%Growth_Rep1,[3]; [20],93.46%
same,Pf_72h_%Growth_Rep2,[3]; [21],85.21%
"CO[C@H]1C[C@H](O[C@H]2[C@H](C)O[C@@H](O[C@@H]3/C(C)=C/C[C@@H]4C[C@@H](C[C@]5(C=C[C@H](C)[C@@H](C6CCCCC6)O5)O4)OC(=O)C4=C[C@H](C)[C@@H](O)[C@H]5OC/C(=C\C=C[C@@H]3C)[C@@]45O)C[C@@H]2OC)O[C@@H](C)[C@@H]1O [Doramectin, delta2-]",Tg_72h_%Growth_Rep1,[1]; [10],85.18%
same,Tg_72h_%Growth_Rep2,[1]; [11],104.19%
same,Pf_120h_%Growth_Rep1,[2]; [12],4.07%
same,Pf_120h_%Growth_Rep2,[2]; [13],0.97%
same,Pf_72h_%Growth_Rep1,[3]; [14],3.28%
same,Pf_72h_%Growth_Rep2,[3]; [15],1.57%
Cc1cc(O)c(C)c(O)c1C(=O)O [BIA-M1661],Tg_72h_%Growth_Rep1,[1]; [28],153.94%
same,Tg_72h_%Growth_Rep2,[1]; [29],85.55%
same,Pf_120h_%Growth_Rep1,[2]; [30],67.73%
same,Pf_120h_%Growth_Rep2,[2]; [31],68.25%
same,Pf_72h_%Growth_Rep1,[3]; [32],76.46%
same,Pf_72h_%Growth_Rep2,[3]; [33],83.29%
